Experiments:
HTT [1] = experiment: Gene panel canonical junction qPCR assay, HTT CJ mRNA (Table 7); format: cell-based, human; conditions: Homo sapiens, read-out: HTT CJ mRNA decrease IC50
Protocol: (§1) Compounds described herein were used to modulate RNA transcript abundance in cells. The expression of a target mRNA was measured by detecting the formation of an exon-exon junction in the canonical transcript (CJ). A compound mediated exon-inclusion event was detected by observing an increase in formation OF A new junction with an alternative exon (AJ). Real-time qPCR assays were used to detect these splicing switches and interrogate the potency of various compounds towards different target Genes. A high-throughput real time quantitative PCR (RT-qPCR) assay was developed to measure these two isoforms of the mRNA (CJ and AJ) for exemplary genes, such as HTT, SMN2, and MYB, together with a control housekeeping gene, GAPDH or GUSB or PPIA, used for normalization. Briefly, the A673 or K562 cell line was treated with various compounds described herein (e.g., compounds of Formula (i)). After treatment, the levels of the HTT, MYB, or SMN2 mRNA targets were determined from each sample of cell lysate by cDNA synthesis followed by qPCR.
(§2) The data analysis was performed by first determining the ΔCt vs the housekeeper gene. This ΔCt was then normalized against the DMSO control (ΔΔCt) and converted to RQ (relative quantification) using the 2^(−ΔΔCt) equation. The RQ were then converted to a percentage response by arbitrarily setting an assay window of 3.5 and 4.0 ΔCt for HTT-CJ and MYB-CJ respectively and an assay window of 9 and 3 ΔCt for HTT-AJ and MYB-AJ in 96 well format (50,000 K562 cells/well and 15,000 A673 cells per well) and an assay window of 3 and 4 ΔCt for HTT-CJ and MYB-CJ respectively and an assay window of 5 and 3 ΔCt for HTT-AJ and MYB-AJ respectively in 384 well format (8,000 K562 cells/well example). […] The percentage response was then fitted to the 4 parametric logistic equation to evaluate the concentration dependence of compound treatment. The increase in AJ mRNA is reported as AC50 (compound concentration having 50% response in AJ increase) while the decrease in CJ mRNA levels is reported as IC50 (compound concentration having 50% response in CJ decrease).
(§3) Additional studies were carried out for a larger panel of genes using the protocol provided above. The junction between flanking upstream and downstream exons was used to design canonical junction qPCR assays. At least one of the forward primer, reverse primer or the CY5-labeled 5′ nuclease probe (with 3′ quencher such as ZEN/Iowa Black FQ) was designed to overlap with the exon junction to capture the CJ mRNA transcript. BLAST was used to confirm the specificity of the probeset and parameters such as melting temperature, GC content, amplicon size, and primer dimer formation are considered during their design. Data for the decrease in CJ mRNA levels for four exemplary genes (HTT, SMN2, MYB, and Target C) analyzed in this panel are reported as IC50 (compound concentration having 50% response in CJ decrease).

MYB [2] = experiment: RT-qPCR splicing assay, MYB AJ/CJ mRNA; format: cell-based; conditions: Homo sapiens, A673 or K562 cells, 24 hours; for IC50: decrease in canonical junction mRNA; for AC50: increase in alternative junction mRNA
Protocol: as §1
(§4) The A673 cell line was cultured in DMEM with 10% FBS. Cells were diluted with full growth media and plated in a 96-well plate (15,000 cells in 100 ul media per well). The plate was incubated at 37° C. with 5% CO2 for 24 hours to allow cells to adhere. An 11-point 3-fold serial dilution of the compounds was made in DMSO then diluted in media in an intermediate plate. Compounds were transferred from the intermediate plate to the cell plate with the top dose at a final concentration of 10 uM in the well. Final DMSO concentration was kept at or below 0.25%. The cell plate was returned to the incubator at 37° C. with 5% CO2 for an additional 24 hours.
(§5) The K562 cell line was cultured in IMDM with 10% FBS. For K562, cells were diluted with full growth media and plated in either a 96-well plate (50,000 cells in 50 uL media per well) or a 384-well plate (8,000-40,000 cells in 45 uL media per well). An 11-point 3-fold serial dilution of the compounds were made in DMSO then diluted in media in an intermediate plate. Compound was transferred from the intermediate plate to the cell plate with the top dose at a final concentration of 10 uM in the well. Final DMSO concentration was kept at or below 0.25%. Final volume was 100 uL for 96-well plate and 50 uL for 384-well plate. The cell plate was then placed in an incubator at 37° C. with 5% CO2 for 24 hours.
(§6) The cells were then gently washed with 50 uL-100 uL Cold Pbs before proceeding to addition of lysis buffer. 30 uL-50 μL of room temperature lysis buffer with DNAse I (and optionally RNAsin) was added to each well. Cells were shaken/mixed thoroughly at room temperature for 5-10 minutes for lysis to take place and then 3 uL-5 μL of room temperature stop solution was added and wells were shaken/mixed again. After 2-5 minutes, the cell lysate plate was transferred to ice for RT-qPCR reaction setup. The lysates could also be frozen at −80° C. for later use.
(§7) In some cases, a direct lysis buffer was used. an appropriate volume of 3× lysis buffer (10 mM tRis, 150 mM NaCl, 1.5%-2.5% Igepal and 0.1-1 U/uL RNAsin, pH 7.4) was directly added to either K562 or A673 cells in media and mixed by pipetting 3 times. The plates were then incubated at room temperature with shaking/rocking for 20-50 minutes to allow for lysis to take place. After this time, the cell lysate plate was transferred to ice to set up for the RT-qPCR reactions. The lysates could also be frozen at −80° C. for later use.
(§8) To set up 10 uL RT-QpcR reactions, cell lysates were transferred to 384-well qPCR plates containing the master mix according to the table below. The plates were sealed, gently vortexed, and spun down before the run. The volumes were adjusted accordingly in some instances where the reaction was carried in 20 µL. The table below summarizes the components of the RT-qPCR reactions:
(§9) The RT-qPCR reaction was performed using a QuantStudio (ThermoFisher) under the following fast cycling conditions. […]

HTT [3] = experiment: RT-qPCR splicing assay, HTT AJ/CJ mRNA; format: cell-based, human; conditions: Homo sapiens, 24 h, A673 or K562 cells; for IC50: decrease in canonical junction mRNA; for AC50: increase in alternative junction mRNA
Protocol: as §1, §4, §5, §6, §7, §8, §9

SMN2 = experiment: Gene panel canonical junction qPCR assay, SMN2 CJ mRNA (Table 7); format: cell-based; conditions: Homo sapiens, read-out: SMN2 CJ mRNA decrease IC50
Protocol: as §1, §2, §3

Target C = experiment: Gene panel canonical junction qPCR assay, Target C CJ mRNA (Table 7); format: cell-based, human; conditions: Homo sapiens, read-out: Target C CJ mRNA decrease IC50
Protocol: as §1, §2, §3

MYB [4] = experiment: Gene panel canonical junction qPCR assay, MYB CJ mRNA (Table 7); format: cell-based; conditions: Homo sapiens, read-out: MYB CJ mRNA decrease IC50
Protocol: as §1, §2, §3

| Compound | IC50 (HTT [1]) [nM] | IC50 (MYB [2]) [nM] | AC50 (MYB [2]) [nM] | IC50 (HTT [3]) [nM] | AC50 (HTT [3]) [nM] | IC50 (SMN2) [nM] | IC50 (Target C) [nM] | IC50 (MYB [4]) [nM] |
| --- | --- | --- | --- | --- | --- | --- | --- | --- |
| CCN(c1ccc2c(n1)OCc1cc(-n3cccn3)ccc1-2)C1CCNCC1 [Compound 177] | > 10000 | > 10000 | > 10000 | > 10000 | > 10000 | > 10000 | > 10000 | > 10000 |
| CN(c1ccc2c(n1)OCc1cc(-n3cccn3)ccc1-2)[C@@H]1C[C@H]2CCC[C@@H](C1)N2 [Compound 178] | < 100 | 100 to 1000 | < 100 | < 100 | < 100 | < 100 | 100 to 1000 | 100 to 1000 |
| c1cnn(-c2ccc3c(c2)COc2nc(N[C@@H]4C[C@H]5CC[C@@H](C4)N5)ccc2-3)c1 [Compound 179] | 100 to 1000 | 100 to 1000 | 100 to 1000 | 100 to 1000 | 100 to 1000 | 100 to 1000 | 100 to 1000 | 100 to 1000 |
| CN(c1ccc2c(n1)OCc1cc(-n3cccn3)ccc1-2)[C@H]1C[C@]2(C)CC[C@](C)(C1)N2 [Compound 180] | < 100 | 100 to 1000 | 100 to 1000 | < 100 | < 100 | < 100 | 100 to 1000 | 100 to 1000 |
| c1cnn(-c2ccc3c(c2)COc2nc(N4CCCC5(CNC5)C4)ccc2-3)c1 [Compound 181] | > 10000 | > 10000 | > 10000 | > 10000 | > 10000 | > 10000 | > 10000 | > 10000 |
| c1cnn(-c2ccc3c(c2)COc2nc(N4CCC5(CCNCC5)C4)ccc2-3)c1 [Compound 182] | > 10000 | > 10000 | > 10000 | > 10000 | > 10000 | > 10000 | > 10000 | > 10000 |
| c1cnn(-c2ccc3c(c2)COc2nc(N4CCC5(CCCNC5)C4)ccc2-3)c1 (stereo not drawn) [Compound 183] | > 10000 | 1000 to 10000 | > 10000 | > 10000 | > 10000 | 100 to 1000 | > 10000 | 1000 to 10000 |
| c1cnn(-c2ccc3c(c2)COc2nc(N4CCC5(CCNC5)CC4)ccc2-3)c1 [Compound 184] | 1000 to 10000 | 1000 to 10000 | 1000 to 10000 | 1000 to 10000 | 1000 to 10000 | 1000 to 10000 | 1000 to 10000 | 1000 to 10000 |
| c1cnn(-c2ccc3c(c2)COc2nc(N4C[C@H]5CNC[C@H]5C4)ccc2-3)c1 [Compound 185] | > 10000 | > 10000 | 1000 to 10000 | > 10000 | > 10000 | 1000 to 10000 | > 10000 | > 10000 |
| CC1(C)CC(Oc2ccc3c(n2)OCc2cc(-n4cccn4)ccc2-3)CCN1 (stereo not drawn) [Compound 186] | 1000 to 10000 | 1000 to 10000 | > 10000 | 1000 to 10000 | 1000 to 10000 | 100 to 1000 | > 10000 | 1000 to 10000 |
| c1cnn(-c2ccc3c(c2)COc2nc(OC4CCNCC4)ccc2-3)c1 [Compound 187] | 1000 to 10000 | > 10000 | > 10000 | 1000 to 10000 | > 10000 | 1000 to 10000 | > 10000 | > 10000 |
| c1cnn(-c2ccc3c(c2)COc2nc(O[C@@H]4C[C@H]5CC[C@@H](C4)N5)ccc2-3)c1 [Compound 188] | 100 to 1000 | 1000 to 10000 | 1000 to 10000 | 100 to 1000 | 100 to 1000 | 100 to 1000 | 1000 to 10000 | 1000 to 10000 |
| CCN(c1ccc2c(n1)OCc1cc(-n3cccn3)ccc1-2)C1CC(C)(C)NC(C)(C)C1 [Compound 189] | > 10000 | 1000 to 10000 | > 10000 | > 10000 | 1000 to 10000 | 1000 to 10000 | > 10000 | 1000 to 10000 |
| c1cnn(-c2ccc3c(c2)COc2nc(N[C@@H]4C[C@H]5CCC[C@@H](C4)N5)ccc2-3)c1 [Compound 190] | < 100 | 100 to 1000 | 100 to 1000 | < 100 | 100 to 1000 | < 100 | 100 to 1000 | 100 to 1000 |
| CCN(c1ccc2c(n1)OCc1cc(-n3cccn3)ccc1-2)[C@@H]1C[C@H]2CC[C@@H](C1)N2 [Compound 191] | 100 to 1000 | 1000 to 10000 | > 10000 | 100 to 1000 | 1000 to 10000 | 100 to 1000 | 1000 to 10000 | 1000 to 10000 |
| c1cnn(-c2ccc3c(c2)COc2nc(N4CCCC5(CCNC5)C4)ccc2-3)c1 (stereo not drawn) [Compound 192] | > 10000 | > 10000 | > 10000 | > 10000 | > 10000 | > 10000 | > 10000 | > 10000 |
| c1cnn(-c2ccc3c(c2)COc2nc(S[C@@H]4C[C@H]5CC[C@@H](C4)N5)ccc2-3)c1 [Compound 193] | 1000 to 10000 | 1000 to 10000 | > 10000 | > 10000 | > 10000 | > 10000 | > 10000 | 1000 to 10000 |
| CN1C[C@@H]2[C@H](C1)[C@H]2N(C)c1ccc2c(n1)OCc1cc(-n3cccn3)ccc1-2 [Compound 196] | > 10000 | > 10000 | > 10000 | > 10000 | > 10000 | > 10000 | > 10000 | > 10000 |

From patent US20240400584A1, “COMPOUNDS AND METHODS FOR MODULATING SPLICING” (REMIX THERAPEUTICS INC., priority 2021, published 2024)
